Laboratory results reported in ChEMBL document CHEMBL1142005, “Utilization of a nitrobenzoxadiazole (NBD) fluorophore in the design of a Grb2 SH2 domain-binding peptide mimetic” (Bioorg Med Chem Lett, 2005).

Legend:
[1] = target: T1, Growth factor receptor-bound protein 2 (Homo sapiens, UniProt P62993); test: First order rate constant (koff) for human growth factor receptor bound protein 2
Target sequence in this assay (P62993 whole entry, looked up): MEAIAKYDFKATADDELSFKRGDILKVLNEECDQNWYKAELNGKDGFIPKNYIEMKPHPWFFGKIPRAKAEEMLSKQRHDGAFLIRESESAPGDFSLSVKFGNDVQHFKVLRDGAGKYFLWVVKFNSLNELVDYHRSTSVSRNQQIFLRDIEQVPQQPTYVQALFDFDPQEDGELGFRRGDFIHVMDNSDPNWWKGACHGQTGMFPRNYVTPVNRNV

[2] = target: T1, Growth factor receptor-bound protein 2; test: First order rate constant (kon) for human growth factor receptor bound protein 2
Target sequence in this assay (P62993 whole entry, looked up): as above

[3] = target: T1, Growth factor receptor-bound protein 2; test: Apparent dissociation constant for human growth factor receptor bound protein 2
Target sequence in this assay (P62993 whole entry): as the sequence (P62993 whole entry, looked up) above

[4] = target: T1, Growth factor receptor-bound protein 2; test: Inhibitory concentration for human growth factor receptor bound protein 2
Target sequence in this assay (P62993 whole entry): as the sequence (P62993 whole entry, looked up) above

Row | Compound | k off [1] | kon [2] | Kd [3] | IC50 [4]
1 | NC(=O)C[C@H](NC(=O)C1(NC(=O)[C@@H](CC(=O)O)Cc2ccc(CP(=O)(O)O)cc2)CCCCC1)C(=O)NCCNc1ccc([N+](=O)[O-])c2nonc12 | 0.14 s⁻¹ | 1.18e+06 1/M1/S | 119 nM | 167 nM
2 | NC(=O)C[C@H](NC(=O)C1(NC(=O)[C@@H](CC(=O)O)Cc2ccc(CP(=O)(O)O)cc2)CCCCC1)C(=O)NCCCc1cccc2ccccc12 | 0.0991 s⁻¹ | 4.18e+06 1/M1/S | 23.8 nM | –
